The values below come from PMC6412019, “Discovery of NV-5138, the first selective Brain mTORC1 activator” (Scientific Reports, 2019).

The structures appear in SMILES notation.

For test [1], the target named is T1, Sestrin2 (Homo sapiens, UniProt P58004).
T1 sequence (P58004 1-480): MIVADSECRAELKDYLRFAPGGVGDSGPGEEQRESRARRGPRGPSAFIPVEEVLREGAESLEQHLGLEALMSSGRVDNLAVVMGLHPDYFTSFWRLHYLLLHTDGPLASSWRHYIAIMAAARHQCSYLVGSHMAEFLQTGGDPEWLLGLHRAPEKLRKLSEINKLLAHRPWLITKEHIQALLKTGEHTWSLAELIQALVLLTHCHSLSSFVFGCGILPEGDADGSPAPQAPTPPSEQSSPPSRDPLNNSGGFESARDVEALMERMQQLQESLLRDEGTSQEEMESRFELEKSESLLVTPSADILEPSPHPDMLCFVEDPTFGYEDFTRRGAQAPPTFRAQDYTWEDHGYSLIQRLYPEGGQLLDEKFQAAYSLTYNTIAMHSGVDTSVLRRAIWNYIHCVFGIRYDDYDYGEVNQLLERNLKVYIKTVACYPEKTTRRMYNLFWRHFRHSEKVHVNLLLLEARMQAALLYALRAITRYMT
Briefly: Cellular thermal shift assay (CETSA), intracellular Sestrin2 in HEK-293T cells. Particulars: 30 min, leucine-starved HEK293T cells, read-out: increase of melting temperature of intracellular Sestrin2. It is filed as cell-based. The method, then: Expression of flag-WDR24 allows for immunoprecipitation of the Sestrin2/GATOR2 complex from amino acid-starved cells with an anti-flag antibody. […] Finally, to determine whether Sestrins and the GATOR pathway are required for NV-5138 activity, HEK-293T cells null for all three Sestrin isoforms or the GATOR1 component Nprl3 were obtained.
CETSA was performed as previously described. […] Cells were then collected, centrifuged for 3 min at 300 g at room-temperature (RT), washed with PBS, centrifuged again, and finally resuspended in 1 ml of RT PBS containing EDTA-free protease-inhibitor tablets (Roche). 100 µl of each cell suspension was heated at the noted temperature for 3 min, samples were then placed on the bench at RT for 3 min before being flash-frozen in liquid nitrogen. To lyse the cells, samples were put through two cycles of freeze-thawing followed by centrifugation at 20,000 g for 20 min at 4 °C. 80 µl of the resulting supernatant was denatured and, resolved by SDS-PAGE. Membranes were imaged using the LI-COR imaging system. Antibodies used are listed in Supplementary Information.

For the next test, the system named is mTORC1. Briefly: mTORC1 activation in rat peripheral tissues after oral dosing (phosphorylated S6 S240/244 immunoblot). As to conditions: 1 h after single oral dose; NV-5138 160 mg/kg, leucine 500 mg/kg. It is filed as in vivo. The method, then:
After compound administration, animals were sacrificed by decapitation using a guillotine, immediately Specific regions of the brain were quickly microdissected, tissues collected, and flash frozen in liquid nitrogen. Peripheral tissues and all brain were homogenized using MP homogenizer in Lysis Buffer (Cell lysis buffer: 1% Triton X-100, 50 mM HEPES pH 7.4, 100 mM NaCl, 2 mM EDTA, 10 mM Beta-glycerophosphate, 10 mM Sodium pyrophosphate, and 1 protease inhibitor) at 4 °C. Synaptic proteins and mTORC1 analyses in each brain region were conducted on crude synaptoneurosome preparations as previously described. Equal amounts of total protein from each sample were denatured and, resolved by SDS-PAGE. Membranes were imaged using the LI-COR imaging system. Proteins levels are normalized to tubulin or GAPDH levels and further normalized to vehicle treated rats for each tissue. Antibodies used are listed in Supplementary Information.
In general terms: Immunoblotting shows a protein as a band on a membrane.

Test [2] addresses T1, Sestrin2. Briefly: Thermal shift assay of purified Sestrin2. It is filed as binding. More on the design: Full-length, codon-optimized human Sestrin2 was cloned into a pMAL6H -C5XT bacterial expression vector; His6-MBP (TEV-cleavable) (N, cleaved yes); made in house; host or cells: Escherichia coli LOBSTR (DE3). As to conditions: average +/- SD, n = 3, read-out: Average Tm shift; for ΔTm at 1 µM: compound concentration 1 µM; for ΔTm at 10 µM: compound concentration 10 µM; for ΔTm at 100 µM: compound concentration 100 µM. The method, then: Accordingly, we synthesized novel binding ligands incorporating these structural features. These compounds were tested for Sestrin2 binding using a thermal shift assay and for their ability to activate mTORC1 in leucine-starved Human Embryonic Kidney (HEK)-293T cells. These studies led to the identification of NV-5138 – a novel small molecule activator of mTORC1 signaling (Fig. 1a).
Full-length, codon-optimized human Sestrin2 was cloned into a pMAL6H -C5XT bacterial expression vector. Protein was purified onto a HisTrap FF crude column (GE Healthcare) followed by anion exchange chromatography then further purified via size-exclusion chromatography. Further details can be found in Supplementary Information.
Full-length, codon-optimized human Sestrin2 was cloned into a pMAL6H -C5XT bacterial expression vector such that Sestrin2 became N-terminally fused with a Tobacco Etch Virus nuclear-inclusion-a endopeptidase (TEV)–cleavable His6-MBP tag. This vector was transformed into Escherichia coli LOBSTR (DE3) cells (Kerafast) ^1. Cells were grown at 37 °C to 0.6 OD, then protein production was induced with 0.2 mM IPTG at 18 °C for 12–14 h. Cells were collected by centrifugation at 6,000g, resuspended in lysis buffer (50 mM Tris-HCl, pH 8.5, 400 mM NaCl, 5 mM MgCl2, 1 mM dithiothreitol (DTT), 0.2% CHAPS, 10% glycerol and 1 tablet of protease inhibitor tablets per 50 ml (Complete Inhibitor tablets from Roche w/o EDTA)), homogenized and sonicated. The lysate was cleared by centrifugation at 15,000g for 45 min. The soluble fraction (~250 ml) was loaded onto a HisTrap FF crude column (GE Healthcare) at 2 ml/min followed by washing with lysis buffer at 4 ml/min. After washing, the protein was eluted in lysis buffer containing 300 mM imidazole at 4 ml/min. Fractions corresponding to the Sestrin2 protein were identified via SDS-PAGE and pooled. The eluted Sestrin2 was then incubated with TEV protease and dialyzed overnight at 4 °C into 50 mM Tris-HCl, pH 8.5, 400 mM NaCl, 5 mM MgCl2, 1 mM dithiothreitol (DTT), 0.1% CHAPS, 10% glycerol. To separate the N-terminal tag from the cleaved Sesrin2, from cleaved sample was then re-applied to the HisTrap FF crude column and flow-through collected. The protein was then subjected to anion exchange chromatography on an 8ml Mono Q column (GE Healthcare) with a linear NaCl gradient and then further purified via size-exclusion chromatography on a Superdex S200 26/60 column (GE Healthcare) equilibrated in running buffer (50 mM Hepes pH 7.4, 200 mM NaCl, 1 mM DTT, 2.5 mM MgCl2, and 5% glycerol).

Turning to `CC(C)C[C@H](N)C(=O)O` [Leucine, L-leucine, reference compound], the ΔTm at 300 µM at Sestrin2 [1] was around 2 °C. Moreover, in the test with mTORC1, the “mTORC1 activation in kidney, heart, tibialis anterior muscle, testes, epididymal fat” value is recorded as “significant activation”; the “mTORC1 activation in liver” value is recorded as “significant activation”; the “mTORC1 activation in lung, spleen, gastrocnemius muscle, eye, thymus” value is reported as “little to no activation”. For the same compound, on Sestrin2 [2], the ΔTm at 1 µM came out at 0.61 ± 0.59 °C, the ΔTm at 10 µM came out at 3.64 ± 0.41 °C and the ΔTm at 100 µM was 6.49 ± 0.2 °C.

As for `CC(C)(C[C@H](N)C(=O)O)C(F)F` [NV-5138, (S)-2-amino-5,5-difluoro-4,4-dimethylpentanoic acid], on Sestrin2 [1], the ΔTm at 300 µM is around 2 °C. In addition, in the test with mTORC1, the “mTORC1 activation in kidney, heart, tibialis anterior muscle, testes, epididymal fat” value was “significant activation”; the “mTORC1 activation in liver” value is recorded as “trend”; the “mTORC1 activation in lung, spleen, gastrocnemius muscle, eye, thymus” value is listed as “little to no activation”. For the same compound, on Sestrin2 [2], the ΔTm at 1 µM came out at 0.57 ± 0.22 °C, the ΔTm at 10 µM was found to be 3.27 ± 0.16 °C and the ΔTm at 100 µM amounted to 6.17 ± 0.18 °C.
